In ChEMBL document CHEMBL1201862, “PubChem BioAssay data set” (2004):
pEC50: −log10 of the molar value. “And” between values parts separate entries of the source, which are not always exact repeats. Equal entries are not always repeated. The source made the active and inactive calls.

How the values were obtained:
[1] = viability loss in THP-1 monocytes – THP-1 cells, cytotoxicity control for Vif-APOBEC3G degradation inhibitor project, dose response (AID 1117359); format: functional; conditions: THP-1
[2] = viability loss in CEM21 cells – cell-based, plate reader, dry powder, cytotoxicity control, dose response (AID 687026); format: functional
[3] = molecular target: Beta-2 adrenergic receptor (Homo sapiens, UniProt P07550); test: ADRB2 activation measured by internalization – cell-based, FAP fluorogen, flow cytometry, cherry pick 1, dose response (AID 588763); format: functional
Beta-2 adrenergic receptor, sequence (P07550 whole entry, the tested form may be a part): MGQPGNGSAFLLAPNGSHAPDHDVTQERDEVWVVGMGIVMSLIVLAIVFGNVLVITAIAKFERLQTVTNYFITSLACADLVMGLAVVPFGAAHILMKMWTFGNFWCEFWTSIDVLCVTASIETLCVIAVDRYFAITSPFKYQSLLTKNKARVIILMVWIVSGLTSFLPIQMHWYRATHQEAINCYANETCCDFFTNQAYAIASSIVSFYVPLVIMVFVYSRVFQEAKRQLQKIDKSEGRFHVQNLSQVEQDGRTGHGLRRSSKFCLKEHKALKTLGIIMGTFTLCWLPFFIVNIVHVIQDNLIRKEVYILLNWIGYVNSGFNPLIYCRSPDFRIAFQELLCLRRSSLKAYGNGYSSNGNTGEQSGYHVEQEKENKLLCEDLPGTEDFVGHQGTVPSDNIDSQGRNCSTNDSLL

[4] = off-target signal loss in HeLa-CEM21 co-culture – HeLa F-luc CTL cells, cherry-picked, counter-screen for HIV-1 Env fusion inhibitor project, dose response (AID 652040); format: functional, cell-based;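 note: potency for signal decrease marking cytotoxic or nonspecific inhibition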
[5] = blockers of HIV-1 envelope-mediated cell-cell fusion – cherry-pick, dose response (AID 652057); format: functional, cell-based
[6] = blockers of HIV-1 ZM109 envelope-driven cell-cell fusion – HeLa effector, CEM target cells, luciferase, cherry-pick, dose response (AID 652058); format: functional, cell-based;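 note: luciferase signal from HIV-1 Env mediated cell-cell fusion of effector and target cells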
[7] = HIV-1 AD8 envelope cell-cell fusion blockers – cherry-pick, dose response (AID 652062); format: functional, cell-based;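 note: luciferase signal from cell-cell fusion driven by HIV-1 clade B AD8 Env; potency is for inhibitors of fusion seen as a drop in luminescence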
Protein skinhead-1 = molecular target: T1, Protein skinhead-1 (Caenorhabditis elegans, UniProt P34707); format: functional
T1 sequence (P34707 whole entry): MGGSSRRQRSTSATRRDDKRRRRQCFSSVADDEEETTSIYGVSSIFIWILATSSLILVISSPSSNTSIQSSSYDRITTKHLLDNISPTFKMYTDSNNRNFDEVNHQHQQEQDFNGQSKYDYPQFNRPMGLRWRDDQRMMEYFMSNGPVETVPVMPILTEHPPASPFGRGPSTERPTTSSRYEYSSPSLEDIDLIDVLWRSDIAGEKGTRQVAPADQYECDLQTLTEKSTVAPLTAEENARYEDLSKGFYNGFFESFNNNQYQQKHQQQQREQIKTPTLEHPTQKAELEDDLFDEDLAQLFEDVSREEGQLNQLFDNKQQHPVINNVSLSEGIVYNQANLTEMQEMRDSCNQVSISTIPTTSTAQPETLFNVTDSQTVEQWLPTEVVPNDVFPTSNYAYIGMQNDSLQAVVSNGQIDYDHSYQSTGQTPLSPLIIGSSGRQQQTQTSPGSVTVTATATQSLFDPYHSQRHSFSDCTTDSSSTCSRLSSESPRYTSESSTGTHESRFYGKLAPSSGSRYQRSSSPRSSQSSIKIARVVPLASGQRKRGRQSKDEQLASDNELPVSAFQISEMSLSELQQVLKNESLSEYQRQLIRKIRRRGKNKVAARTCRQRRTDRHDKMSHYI

[8] = molecular target: T2, Oxysterols receptor LXR-beta (Homo sapiens, UniProt P55055); format: functional, cell-based;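 note: Cell-based luminescence dose-response assay of agonist activity at LXR, run as a confirmatory counterscreen to a daf-12 agonist screen; HEK293 cells with Gal4-LXR fusion and GAL4-driven luciferase reporter; agonist potency from rising luciferase signal of a Gal4-LXR reporter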
T2 sequence (P55055 whole entry): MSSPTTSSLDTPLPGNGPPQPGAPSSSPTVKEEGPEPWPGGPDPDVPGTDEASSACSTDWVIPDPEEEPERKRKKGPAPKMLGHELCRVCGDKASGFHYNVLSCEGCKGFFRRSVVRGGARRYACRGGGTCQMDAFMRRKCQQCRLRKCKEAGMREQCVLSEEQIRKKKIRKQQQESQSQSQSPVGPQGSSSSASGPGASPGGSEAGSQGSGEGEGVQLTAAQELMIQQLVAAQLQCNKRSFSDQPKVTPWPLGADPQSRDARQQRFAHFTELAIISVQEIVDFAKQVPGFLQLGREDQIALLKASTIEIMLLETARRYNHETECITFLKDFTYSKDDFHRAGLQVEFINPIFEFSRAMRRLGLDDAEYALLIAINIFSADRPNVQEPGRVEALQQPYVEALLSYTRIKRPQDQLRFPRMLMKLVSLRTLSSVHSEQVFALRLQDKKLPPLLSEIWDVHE

INS1 = test: INS-1E survival protection against cytokine death – cell-based, luminescence, retest, dose response (AID 449756); format: functional; conditions: Rattus norvegicus;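 note: cell death triggered by IL-1 beta plus TNF-alpha plus IFN-gamma mixture; protective hits raise ATP signal compared with cytokine alone wells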
Bcl-2-related protein A1 [9] = molecular target: T3, Bcl-2-related protein A1 (Mus musculus, UniProt Q07440); test: displacement of Bid BH3 peptide from Bfl-1 – biochemical, fluorescence polarization, FITC-Bid, mouse, primary screen (AID 432)
T3 sequence (Q07440 whole entry): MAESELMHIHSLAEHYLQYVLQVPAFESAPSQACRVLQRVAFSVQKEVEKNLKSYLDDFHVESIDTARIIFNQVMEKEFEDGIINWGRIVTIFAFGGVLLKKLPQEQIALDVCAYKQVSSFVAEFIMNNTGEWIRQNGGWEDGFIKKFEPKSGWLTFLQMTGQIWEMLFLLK

[10] = Trypanosoma cruzi growth suppression in host cells – NIH3T3 host cells, beta-gal luminescence, confirmation (AID 2044); format: functional, cell-based;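 note: intracellular parasites grown in NIH/3T3 mouse fibroblasts as host cells; luminescent beta-galactosidase reporter signal from transgenic T. cruzi replicating inside host cells; inhibitors lower the luminescence signal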
[11] = luciferase reporter signal suppression in cells – H4 neuroglioma cells, luminescence, dose response (AID 1990); format: functional, cell-based
[12] = alpha-synuclein stem-loop luciferase translation blockers – H4 neuroglioma cells, luminescence, confirmation (AID 1988); format: functional, cell-based
Nonstructural protein 1 = Nonstructural protein 1 (Influenza A virus, UniProt Q194T2); format: functional, Influenza A virus (A/California/07/2009(H1N1))
Nonstructural protein 1, sequence (Q194T2 whole entry): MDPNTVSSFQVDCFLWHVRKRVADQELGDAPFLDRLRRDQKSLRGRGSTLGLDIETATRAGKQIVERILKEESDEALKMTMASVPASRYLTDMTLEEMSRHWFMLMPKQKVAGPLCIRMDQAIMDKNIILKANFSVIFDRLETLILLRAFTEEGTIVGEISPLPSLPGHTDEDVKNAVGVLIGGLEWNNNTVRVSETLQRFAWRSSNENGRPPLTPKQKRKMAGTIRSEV

Bcl-2-related protein A1 [13] = molecular target: T3, Bcl-2-related protein A1; test: small-molecule antagonists of Bfl-1/BH3 interaction – biochemical, TR-FRET, mouse Bfl-1, confirmation (AID 621);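 note: TR-FRET binding of GST-Bfl-1 to FITC-labelled Bid peptide via terbium antibody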
[14] = Luminescence Cell-Based Dose Response HTS to Identify Inhibitors of 5'UTR Stem-Loop Driven Prion Protein mRNA Translation in H4 Neuroglioblastoma Cells. [Related pubchem assays: 1827 (Project Summary), 1813 (Primary HTS)]; format: functional
[15] = NIH3T3 cell viability loss – ATP luminescence, mouse fibroblasts, counter-screen, dose response (AID 2010); format: functional, cell-based;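 note: cells exposed to compound for about 90 hours before reading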
Transthyretin = Transthyretin (Homo sapiens, UniProt P02766); test: Luminescence-based cell-based high throughput dose response assay to identify activators of Transthyretin (TTR) transcription.; format: functional
[16] = molecular target: Metabotropic glutamate receptor 5 (Rattus norvegicus, UniProt P31424); test: Identification of a glycine sulfonamide based non-MPEP site positive allosteric potentiator (PAM) of mGlu5 (calcium_assay).; format: functional
Metabotropic glutamate receptor 5, sequence (P31424 whole entry): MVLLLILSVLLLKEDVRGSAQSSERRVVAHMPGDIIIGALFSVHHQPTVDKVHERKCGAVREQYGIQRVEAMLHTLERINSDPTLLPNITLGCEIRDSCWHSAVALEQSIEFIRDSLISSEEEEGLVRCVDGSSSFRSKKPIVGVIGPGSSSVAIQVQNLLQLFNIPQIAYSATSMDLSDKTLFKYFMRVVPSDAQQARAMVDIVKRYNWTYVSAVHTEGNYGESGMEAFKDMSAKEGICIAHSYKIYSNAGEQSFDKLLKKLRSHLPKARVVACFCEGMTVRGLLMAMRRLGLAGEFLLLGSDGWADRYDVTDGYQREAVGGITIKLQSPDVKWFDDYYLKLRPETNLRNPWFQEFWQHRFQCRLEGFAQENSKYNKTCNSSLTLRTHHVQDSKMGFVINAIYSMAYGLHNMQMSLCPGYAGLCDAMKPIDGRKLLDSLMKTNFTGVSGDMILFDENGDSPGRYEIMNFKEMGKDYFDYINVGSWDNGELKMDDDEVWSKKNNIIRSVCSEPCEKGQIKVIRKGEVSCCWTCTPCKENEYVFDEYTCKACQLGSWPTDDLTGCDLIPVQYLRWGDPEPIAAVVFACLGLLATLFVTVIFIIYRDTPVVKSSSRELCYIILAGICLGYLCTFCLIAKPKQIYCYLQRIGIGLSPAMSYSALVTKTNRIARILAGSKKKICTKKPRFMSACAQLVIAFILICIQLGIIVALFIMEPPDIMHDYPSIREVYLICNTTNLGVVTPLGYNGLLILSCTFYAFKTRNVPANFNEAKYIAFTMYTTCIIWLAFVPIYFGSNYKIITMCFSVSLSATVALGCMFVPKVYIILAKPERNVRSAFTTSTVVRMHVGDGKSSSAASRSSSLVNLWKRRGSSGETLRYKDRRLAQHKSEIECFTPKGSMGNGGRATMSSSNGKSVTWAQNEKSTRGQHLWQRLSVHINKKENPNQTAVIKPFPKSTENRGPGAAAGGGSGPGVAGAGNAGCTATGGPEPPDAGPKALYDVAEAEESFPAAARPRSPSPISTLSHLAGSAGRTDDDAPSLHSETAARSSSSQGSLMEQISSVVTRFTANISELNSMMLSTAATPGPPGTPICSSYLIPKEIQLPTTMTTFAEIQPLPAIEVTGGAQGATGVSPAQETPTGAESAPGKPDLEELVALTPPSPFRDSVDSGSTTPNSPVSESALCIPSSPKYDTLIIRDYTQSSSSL

[17] = inhibitors acting on PAX2 in cells – cell-based, plate reader, dry powder samples, selectivity assay for PAX8 inhibitor project, dose response (AID 743048); format: functional;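 note: HEK293 cells carrying a WT1 promoter luciferase reporter driven by expressed Pax2; potency is for inhibition of Pax2 driven reporter signal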
[18] = P. falciparum Dd2 growth inhibitors, dose response, SYBR Green, cherry-picked samples (AID 1159567); format: functional, cell-based
Paired box protein Pax-8 = Paired box protein Pax-8 (Homo sapiens, UniProt Q06710); test: PAX8 transcriptional activity inhibition in RMG-I – RMG-I cells, luciferase, cherry-pick, dose response (AID 687027); format: functional, cell-based;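 note: luciferase reporter driven by Pax8 target thyroperoxidase promoter measured by SteadyGlo luminescence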
Paired box protein Pax-8, sequence (Q06710 whole entry): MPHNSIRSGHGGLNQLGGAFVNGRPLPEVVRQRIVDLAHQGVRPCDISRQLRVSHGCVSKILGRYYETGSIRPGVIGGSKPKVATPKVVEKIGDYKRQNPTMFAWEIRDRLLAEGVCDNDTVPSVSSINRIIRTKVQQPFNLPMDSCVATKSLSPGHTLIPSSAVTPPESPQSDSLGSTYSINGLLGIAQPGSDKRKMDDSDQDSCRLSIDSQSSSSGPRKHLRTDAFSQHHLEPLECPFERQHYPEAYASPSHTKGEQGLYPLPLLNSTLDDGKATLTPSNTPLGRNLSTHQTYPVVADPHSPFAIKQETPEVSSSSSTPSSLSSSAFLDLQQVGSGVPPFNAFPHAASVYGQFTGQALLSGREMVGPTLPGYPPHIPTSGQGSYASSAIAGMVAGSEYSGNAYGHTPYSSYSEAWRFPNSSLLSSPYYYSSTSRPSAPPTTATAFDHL

[19] = PAX8-dependent cell viability loss – plate reader, dry powder, dose response (AID 743049); format: functional, cell-based
[20] = OV-90 cell viability loss – plate reader, dry powder, SA8, PAX8 inhibitor project, dose response (AID 743149); format: functional, cell-based
[21] = COV362 cell viability loss – plate reader, dry powder, SA12, cytotoxicity control for PAX8 inhibitor project, dose response (AID 743144); format: functional, cell-based
[22] = PAX5 cellular inhibition readout – cell-based, plate reader, dry powder samples, selectivity assay for PAX8 inhibitor project, dose response (AID 743047); format: functional;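 note: HEK293 cells carrying a Pax5 driven CD19 promoter luciferase reporter; potency of inhibitors that lower reporter luminescence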
[23] = HEK293 Cytotoxicity Assay Measured in Cell-Based System Using Plate Reader - 7071-01_Inhibitor_Dose_CherryPick_Activity_Set2.; format: functional
HEK293 = test: viability loss in HEK293T cells – cell-based, ATP luminescence, cherry-pick samples, cytotoxicity control, dose response (AID 687005); format: functional; conditions: Homo sapiens;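 note: cells exposed to compound for 48 hours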
[24] = A2780 cell killing – plate reader, dry powder samples, cytotoxicity control, dose response (AID 743046); format: functional, cell-based
[25] = toxicity toward immortalized ovarian surface epithelium – cell-based, plate reader, dry powder samples, cytotoxicity control for PAX8 inhibitor project, dose response (AID 743045); format: functional
[26] = OVCAR-3 cell viability loss – plate reader, dry powder samples, PAX8 inhibitor project, dose response (AID 743044); format: functional, cell-based
[27] = OVCAR8 cell viability loss – plate reader, dry powder samples, PAX8 project, dose response (AID 743197); format: functional, cell-based; conditions: OVCAR-8
[28] = IGROV1 cell killing – plate reader, dry powder samples, PAX8 inhibitor project, dose response (AID 743043); format: functional, cell-based; conditions: IGROV-1

In the case of `CC(C)Oc1ccc(C(=O)N(Cc2ccco2)C2CCS(=O)(=O)C2)cc1` (stereo unspecified), the CC50 [1] was > 40 µM (active).
For `O=C(CCc1ccc(S(=O)(=O)N2CCOCC2)cc1)Nc1nc(COc2ccccc2)cs1`, the AC50 [2] was > 70 µM (inactive) and 50.5 µM (active), the EC50 [3] was 1.4 µM (active) and the AC50 [4] was > 70 µM (inactive). The AC50 [5] was 1.65 µM (active), the AC50 [6] was 1.07 µM (active) and the AC50 [7] was 4.58 µM (active).
In the case of `Fc1ccccc1-c1nc(-c2ccc(Br)o2)no1`, the EC50 (cells) was > 67.6 µM (inactive), the IC50 (Protein skinhead-1) was > 100 µM (inactive) and the EC50 [8] was > 67.6 µM (inactive).
In the case of `Nc1ccc(N2CCCCC2)cc1N1CCCCC1`, the AC50 (INS1) was 12.9 µM (active), the IC50 (Bcl-2-related protein A1 [9]) was > 100 µM (not active) and the EC50 [10] was 0.197 µM (active). For the same compound, the EC50 [11] was > 120 µM (not active), the EC50 [12] was > 120 µM (not active) and the IC50 (Nonstructural protein 1) was 16.1 µM (active). For the same compound, the IC50 (Bcl-2-related protein A1 [13]) was > 100 µM (not active), the EC50 [14] was > 120 µM (not active) and the EC50 [15] was > 60 µM (not active).
In the case of `Cn1ncc(Cl)c1C(=O)N1CCc2ccccc21`, the EC50 (Transthyretin) was > 167 µM (inactive).
Compound `O=S(=O)(c1ccc(C#Cc2cccc(F)c2)cc1)N1CCOCC1` has a pEC50 [16] of 6.37.
With `N#C[C@H]1[C@@H](c2ccc(C#CC3CCCCC3)cc2)[C@@H](CO)N1S(=O)(=O)c1ccccc1` the AC50 [17] was 19 µM (active), the AC50 [18] was 4.94 µM (active) and the AC50 (Paired box protein Pax-8) was 8.09 µM (active). The AC50 [19] was 18.7 µM (active), the AC50 [20] was 32.3 µM (active) and the AC50 [21] was 61.4 µM (active). For the same compound, the AC50 [22] was 19.3 µM (active).
In the case of `Cc1noc(C)c1NC(=O)N(C)C[C@@H]1Oc2ccc(NC(=O)NC(C)C)cc2CC(=O)N([C@H](C)CO)C[C@H]1C`, the AC50 [23] was 1.61 µM (active) and the AC50 (HEK293) was 1.61 µM (active).
With `Cc1ccc(S(=O)(=O)N(C)C[C@@H]2Oc3ccc(NC(=O)Nc4ccc(C(F)(F)F)cc4)cc3CC(=O)N([C@H](C)CO)C[C@@H]2C)cc1` the AC50 [24] was 20.7 µM (active), the AC50 [25] was 9.76 µM (active) and the AC50 [26] was 3.11 µM (active). For the same compound, the AC50 [27] was 14.3 µM (active), the AC50 (Paired box protein Pax-8) was 3.06 µM (active) and the AC50 [28] was 10.1 µM (active).
